Measured values as given in ChEMBL document CHEMBL4507293 (2021).

Tests used:
[1] = target: Dual specificity calcium/calmodulin-dependent 3',5'-cyclic nucleotide phosphodiesterase 1A (Homo sapiens, UniProt P54750); assay: Biochemical assay (PDE1A)
[2] = system: Tyrosine-protein kinase ABL1 (Homo sapiens), P00519 [E255K]; details: Compound concentration 100.0 nM
[3] = system: Tyrosine-protein kinase ABL1 (Homo sapiens), P00519 [T315I]; details: Compound concentration 100.0 nM
[4] = system: ALK tyrosine kinase receptor (Homo sapiens), Q9UM73 [C1156Y]; details: Compound concentration 100.0 nM
Sequence of ALK tyrosine kinase receptor (Homo sapiens), Q9UM73 [C1156Y] (Q9UM73 whole entry C1156Y, looked up): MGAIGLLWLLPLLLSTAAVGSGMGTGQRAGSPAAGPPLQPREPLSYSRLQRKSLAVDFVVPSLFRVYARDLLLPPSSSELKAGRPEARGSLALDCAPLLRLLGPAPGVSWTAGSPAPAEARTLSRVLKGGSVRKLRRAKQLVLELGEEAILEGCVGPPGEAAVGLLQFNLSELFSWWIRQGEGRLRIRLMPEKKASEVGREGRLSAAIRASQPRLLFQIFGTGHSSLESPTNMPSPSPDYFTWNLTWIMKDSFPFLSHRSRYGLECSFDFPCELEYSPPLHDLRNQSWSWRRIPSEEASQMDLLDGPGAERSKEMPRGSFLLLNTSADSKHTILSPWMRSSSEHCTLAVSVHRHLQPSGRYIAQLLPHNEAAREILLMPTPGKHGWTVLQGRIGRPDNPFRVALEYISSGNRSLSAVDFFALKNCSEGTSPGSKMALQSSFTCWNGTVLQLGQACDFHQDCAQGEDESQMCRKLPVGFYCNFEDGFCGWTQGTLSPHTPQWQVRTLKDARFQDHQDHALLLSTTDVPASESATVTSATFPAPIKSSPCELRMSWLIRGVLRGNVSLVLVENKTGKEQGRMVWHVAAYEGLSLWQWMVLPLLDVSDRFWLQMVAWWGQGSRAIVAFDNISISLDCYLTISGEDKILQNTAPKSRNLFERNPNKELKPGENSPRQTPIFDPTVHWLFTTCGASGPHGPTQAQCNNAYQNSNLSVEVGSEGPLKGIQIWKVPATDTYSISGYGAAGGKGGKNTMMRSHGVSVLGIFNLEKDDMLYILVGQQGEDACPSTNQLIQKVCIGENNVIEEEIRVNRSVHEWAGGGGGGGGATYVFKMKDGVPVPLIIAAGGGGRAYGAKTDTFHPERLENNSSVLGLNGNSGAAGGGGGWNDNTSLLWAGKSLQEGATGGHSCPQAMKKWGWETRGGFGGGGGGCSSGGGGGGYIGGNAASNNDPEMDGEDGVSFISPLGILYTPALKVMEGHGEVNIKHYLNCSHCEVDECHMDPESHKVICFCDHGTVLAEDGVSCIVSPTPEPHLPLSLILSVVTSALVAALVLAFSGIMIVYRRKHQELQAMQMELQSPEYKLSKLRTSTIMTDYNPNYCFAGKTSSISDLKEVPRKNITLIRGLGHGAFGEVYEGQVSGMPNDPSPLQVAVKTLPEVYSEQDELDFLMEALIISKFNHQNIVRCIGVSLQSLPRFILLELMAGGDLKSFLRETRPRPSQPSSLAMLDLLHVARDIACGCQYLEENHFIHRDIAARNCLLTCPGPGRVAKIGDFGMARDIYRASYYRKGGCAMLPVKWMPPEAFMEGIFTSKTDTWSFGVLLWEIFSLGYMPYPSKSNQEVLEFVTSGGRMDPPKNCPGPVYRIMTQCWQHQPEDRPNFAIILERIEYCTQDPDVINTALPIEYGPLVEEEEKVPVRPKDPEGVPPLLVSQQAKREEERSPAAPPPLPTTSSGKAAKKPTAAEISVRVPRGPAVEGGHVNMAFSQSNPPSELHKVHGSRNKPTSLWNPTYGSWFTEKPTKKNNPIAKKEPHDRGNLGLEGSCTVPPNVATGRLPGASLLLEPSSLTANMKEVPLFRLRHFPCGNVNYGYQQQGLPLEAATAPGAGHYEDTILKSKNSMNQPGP

[5] = target: 5'-AMP-activated protein kinase catalytic subunit alpha-2 (Homo sapiens) (UniProt P54646); details: Compound concentration 100.0 nM
[6] = target: Bone morphogenetic protein receptor type-1A (Homo sapiens) (UniProt P36894); details: Compound concentration 100.0 nM
[7] = target: Calcium/calmodulin-dependent protein kinase type II subunit gamma (Homo sapiens) (UniProt Q13555); details: Compound concentration 100.0 nM
[8] = target: Casein kinase I isoform alpha (Homo sapiens) (UniProt P48729); details: Compound concentration 100.0 nM
[9] = target: Serine/threonine-protein kinase MRCK gamma (Homo sapiens) (UniProt Q6DT37); details: Compound concentration 100.0 nM
[10] = target: Dual specificity tyrosine-phosphorylation-regulated kinase 1B (Homo sapiens) (UniProt Q9Y463); details: Compound concentration 100.0 nM
[11] = system: Epidermal growth factor receptor (Homo sapiens), P00533 [G719S]; details: Compound concentration 100.0 nM
[12] = system: Epidermal growth factor receptor (Homo sapiens), P00533 [UNDEFINED MUTATION]; details: Compound concentration 100.0 nM
[13] = target: Ephrin type-A receptor 8 (Homo sapiens) (UniProt P29322); details: Compound concentration 100.0 nM
Sequence of Ephrin type-A receptor 8 (Homo sapiens) (P29322 whole entry): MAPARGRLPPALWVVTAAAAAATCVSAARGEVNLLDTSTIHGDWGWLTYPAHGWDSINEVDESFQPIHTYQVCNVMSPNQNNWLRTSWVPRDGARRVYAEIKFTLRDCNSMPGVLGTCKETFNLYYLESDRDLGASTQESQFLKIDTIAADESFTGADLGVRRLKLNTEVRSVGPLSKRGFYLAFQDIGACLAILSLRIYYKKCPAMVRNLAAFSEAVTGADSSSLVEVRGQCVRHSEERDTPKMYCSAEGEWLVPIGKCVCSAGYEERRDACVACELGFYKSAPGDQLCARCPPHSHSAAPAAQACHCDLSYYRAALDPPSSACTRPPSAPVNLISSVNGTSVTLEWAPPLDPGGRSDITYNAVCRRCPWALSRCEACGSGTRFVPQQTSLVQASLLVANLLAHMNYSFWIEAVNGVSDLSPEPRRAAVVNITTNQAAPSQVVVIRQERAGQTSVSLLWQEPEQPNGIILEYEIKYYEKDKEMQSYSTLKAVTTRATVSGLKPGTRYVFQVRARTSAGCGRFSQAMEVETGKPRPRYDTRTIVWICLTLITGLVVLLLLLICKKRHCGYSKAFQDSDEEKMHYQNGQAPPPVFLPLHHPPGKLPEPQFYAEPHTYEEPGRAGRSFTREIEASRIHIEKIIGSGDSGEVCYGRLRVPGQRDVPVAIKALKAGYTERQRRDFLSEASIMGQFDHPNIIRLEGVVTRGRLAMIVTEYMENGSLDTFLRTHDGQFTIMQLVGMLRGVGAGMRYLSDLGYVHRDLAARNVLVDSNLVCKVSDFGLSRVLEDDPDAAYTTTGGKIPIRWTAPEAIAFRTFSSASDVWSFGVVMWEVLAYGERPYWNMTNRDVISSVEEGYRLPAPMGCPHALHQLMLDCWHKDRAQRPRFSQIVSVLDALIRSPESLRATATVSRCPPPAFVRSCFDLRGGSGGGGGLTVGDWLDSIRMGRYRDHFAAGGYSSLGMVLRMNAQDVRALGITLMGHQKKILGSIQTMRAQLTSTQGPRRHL

[14] = target: Receptor tyrosine-protein kinase erbB-2 (Homo sapiens) (UniProt P04626); details: Compound concentration 100.0 nM
Sequence of Receptor tyrosine-protein kinase erbB-2 (Homo sapiens) (P04626 whole entry): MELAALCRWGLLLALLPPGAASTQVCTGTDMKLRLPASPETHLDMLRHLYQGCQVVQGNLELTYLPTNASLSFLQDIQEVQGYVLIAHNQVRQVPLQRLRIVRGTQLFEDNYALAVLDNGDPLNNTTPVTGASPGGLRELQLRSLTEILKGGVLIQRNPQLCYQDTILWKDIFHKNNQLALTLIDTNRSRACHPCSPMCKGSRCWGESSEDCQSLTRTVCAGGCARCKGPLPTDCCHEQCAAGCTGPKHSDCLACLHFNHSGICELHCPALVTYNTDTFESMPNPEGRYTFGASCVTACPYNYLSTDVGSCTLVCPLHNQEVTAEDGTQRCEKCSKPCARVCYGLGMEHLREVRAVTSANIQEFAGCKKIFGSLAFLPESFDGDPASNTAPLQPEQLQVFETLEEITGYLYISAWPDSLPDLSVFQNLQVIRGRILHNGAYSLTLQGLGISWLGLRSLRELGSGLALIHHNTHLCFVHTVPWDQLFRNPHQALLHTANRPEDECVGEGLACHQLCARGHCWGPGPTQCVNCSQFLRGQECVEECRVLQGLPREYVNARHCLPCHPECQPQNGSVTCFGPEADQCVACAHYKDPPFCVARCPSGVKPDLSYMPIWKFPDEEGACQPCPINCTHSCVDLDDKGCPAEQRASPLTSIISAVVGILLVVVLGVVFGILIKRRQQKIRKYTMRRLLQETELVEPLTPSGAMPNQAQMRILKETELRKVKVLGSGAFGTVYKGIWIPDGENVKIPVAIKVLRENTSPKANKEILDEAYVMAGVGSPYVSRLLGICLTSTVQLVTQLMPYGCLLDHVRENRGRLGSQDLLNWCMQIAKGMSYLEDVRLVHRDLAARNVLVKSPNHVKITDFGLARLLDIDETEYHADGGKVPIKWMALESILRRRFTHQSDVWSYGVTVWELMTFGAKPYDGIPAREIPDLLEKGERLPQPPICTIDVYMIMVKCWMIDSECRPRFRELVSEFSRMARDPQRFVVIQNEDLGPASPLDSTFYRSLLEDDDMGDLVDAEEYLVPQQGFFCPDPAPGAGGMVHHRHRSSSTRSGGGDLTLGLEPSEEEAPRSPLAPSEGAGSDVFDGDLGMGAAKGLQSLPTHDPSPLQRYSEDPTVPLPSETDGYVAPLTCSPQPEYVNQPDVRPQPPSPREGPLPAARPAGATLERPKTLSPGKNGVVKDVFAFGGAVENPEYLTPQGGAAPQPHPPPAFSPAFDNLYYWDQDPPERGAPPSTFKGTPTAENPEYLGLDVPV

[15] = target: Receptor tyrosine-protein kinase erbB-3 (Homo sapiens) (UniProt P21860); details: Compound concentration 100.0 nM
[16] = target: Receptor-type tyrosine-protein kinase FLT3 (Homo sapiens) (UniProt P36888); details: Compound concentration 100.0 nM
[17] = system: Mast/stem cell growth factor receptor Kit (Homo sapiens), P10721 [A829P]; details: Compound concentration 100.0 nM
[18] = system: Mast/stem cell growth factor receptor Kit (Homo sapiens), P10721 [V559D,V654A]; details: Compound concentration 100.0 nM
[19] = target: LIM domain kinase 1 (Homo sapiens) (UniProt P53667); details: Compound concentration 100.0 nM
[20] = target: Serine/threonine-protein kinase STK11 (Homo sapiens) (UniProt Q15831); details: Compound concentration 100.0 nM
[21] = target: Leukocyte tyrosine kinase receptor (Homo sapiens) (UniProt P29376); details: Compound concentration 100.0 nM
[22] = target: Mitogen-activated protein kinase kinase kinase 3 (Homo sapiens) (UniProt Q99759); details: Compound concentration 100.0 nM
[23] = target: Mitogen-activated protein kinase kinase kinase 4 (Homo sapiens) (UniProt Q9Y6R4); details: Compound concentration 100.0 nM
[24] = target: Mitogen-activated protein kinase kinase kinase kinase 4 (Homo sapiens) (UniProt O95819); details: Compound concentration 100.0 nM
[25] = target: Dual specificity mitogen-activated protein kinase kinase 2 (Homo sapiens) (UniProt P36507); details: Compound concentration 100.0 nM
[26] = target: Dual specificity mitogen-activated protein kinase kinase 5 (Homo sapiens) (UniProt Q13163); details: Compound concentration 100.0 nM
[27] = target: Hepatocyte growth factor receptor (Homo sapiens) (UniProt P08581); details: Compound concentration 100.0 nM
[28] = target: Serine/threonine-protein kinase 3 (Homo sapiens) (UniProt Q13188); details: Compound concentration 100.0 nM
[29] = target: Myosin-IIIa (Homo sapiens) (UniProt Q8NEV4); details: Compound concentration 100.0 nM
[30] = target: Mitogen-activated protein kinase 13 (Homo sapiens) (UniProt O15264); details: Compound concentration 100.0 nM
[31] = target: Cyclin-dependent kinase 17 (Homo sapiens) (UniProt Q00537); details: Compound concentration 100.0 nM
[32] = system: Phosphatidylinositol 4,5-bisphosphate 3-kinase catalytic subunit alpha isoform (Homo sapiens), P42336 [E545K]; details: Compound concentration 100.0 nM
Sequence of Phosphatidylinositol 4,5-bisphosphate 3-kinase catalytic subunit alpha isoform (Homo sapiens), P42336 [E545K] (P42336 whole entry E545K, canonical isoform): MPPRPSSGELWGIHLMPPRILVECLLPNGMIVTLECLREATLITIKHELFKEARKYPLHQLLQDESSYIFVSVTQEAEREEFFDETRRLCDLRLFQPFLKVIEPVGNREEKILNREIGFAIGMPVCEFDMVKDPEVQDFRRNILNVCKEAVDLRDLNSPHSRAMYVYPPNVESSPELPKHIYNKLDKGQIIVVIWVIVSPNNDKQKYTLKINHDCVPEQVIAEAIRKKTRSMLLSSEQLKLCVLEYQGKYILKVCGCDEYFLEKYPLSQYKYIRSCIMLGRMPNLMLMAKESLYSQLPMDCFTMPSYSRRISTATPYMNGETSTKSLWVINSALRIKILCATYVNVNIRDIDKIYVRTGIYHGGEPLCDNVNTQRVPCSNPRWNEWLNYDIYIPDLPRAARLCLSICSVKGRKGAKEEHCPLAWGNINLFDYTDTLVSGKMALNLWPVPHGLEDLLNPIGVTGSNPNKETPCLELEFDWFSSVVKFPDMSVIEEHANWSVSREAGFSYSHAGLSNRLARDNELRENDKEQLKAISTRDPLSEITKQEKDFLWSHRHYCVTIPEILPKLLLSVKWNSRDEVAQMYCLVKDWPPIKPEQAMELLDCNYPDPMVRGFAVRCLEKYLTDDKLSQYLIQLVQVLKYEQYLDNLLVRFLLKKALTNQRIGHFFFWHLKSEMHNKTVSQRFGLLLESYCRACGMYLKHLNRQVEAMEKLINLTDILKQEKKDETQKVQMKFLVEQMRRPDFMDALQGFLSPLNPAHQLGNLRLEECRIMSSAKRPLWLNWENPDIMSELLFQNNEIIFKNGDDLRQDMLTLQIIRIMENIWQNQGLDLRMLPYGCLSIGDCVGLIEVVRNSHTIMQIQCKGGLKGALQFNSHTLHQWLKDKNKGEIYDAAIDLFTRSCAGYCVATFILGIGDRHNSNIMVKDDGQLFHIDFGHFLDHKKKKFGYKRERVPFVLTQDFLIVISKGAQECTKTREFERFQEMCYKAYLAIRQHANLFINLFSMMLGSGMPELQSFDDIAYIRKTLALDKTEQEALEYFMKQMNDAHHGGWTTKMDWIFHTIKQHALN

[33] = system: Proto-oncogene tyrosine-protein kinase receptor Ret (Homo sapiens), P07949 [V804M]; details: Compound concentration 100.0 nM
[34] = target: Ribosomal protein S6 kinase alpha-2 (Homo sapiens) (UniProt Q15349); details: Compound concentration 100.0 nM
[35] = target: Serine/threonine-protein kinase Sgk3 (Homo sapiens) (UniProt Q96BR1); details: Compound concentration 100.0 nM
[36] = target: Serine/threonine-protein kinase 33 (Homo sapiens) (UniProt Q9BYT3); details: Compound concentration 100.0 nM
[37] = target: Tyrosine-protein kinase Tec (Homo sapiens) (UniProt P42680); details: Compound concentration 100.0 nM
[38] = target: Angiopoietin-1 receptor (Homo sapiens) (UniProt Q02763); details: Compound concentration 100.0 nM
[39] = target: Serine/threonine-protein kinase tousled-like 2 (Homo sapiens) (UniProt Q86UE8); details: Compound concentration 100.0 nM
[40] = target: Serine/threonine-protein kinase TNNI3K (Homo sapiens) (UniProt Q59H18); details: Compound concentration 100.0 nM
[41] = target: Wee1-like protein kinase 2 (Homo sapiens) (UniProt P0C1S8); details: Compound concentration 100.0 nM
[42] = target: Serine/threonine-protein kinase WNK2 (Homo sapiens) (UniProt Q9Y3S1); details: Compound concentration 100.0 nM
[43] = target: Serine/threonine-protein kinase WNK3 (Homo sapiens) (UniProt Q9BYP7); details: Compound concentration 100.0 nM
[44] = target: Mitogen-activated protein kinase kinase kinase 20 (Homo sapiens) (UniProt Q9NYL2); details: Compound concentration 100.0 nM

CC(C)CC(=O)N1CCc2nc(-c3ccc(Br)cc3)nc(N(C)Cc3ccccc3)c2C1 [THPP-1-NC]
Ki [1]: > 58.3 µM (not active) | residual activity [2]: 100% | residual activity [3]: 100% | residual activity [4]: 100% | residual activity [5]: 100% | residual activity [6]: 93% | residual activity [7]: 100% | residual activity [8]: 73% | residual activity [9]: 100% | residual activity [10]: 77% | residual activity [11]: 100% | residual activity [12]: 100% | residual activity [13]: 100% | residual activity [14]: 82% | residual activity [15]: 73% | residual activity [16]: 60% | residual activity [17]: 97% | residual activity [18]: 98% | residual activity [19]: 100% | residual activity [20]: 100% | residual activity [21]: 91% | residual activity [22]: 77% | residual activity [23]: 100% | residual activity [24]: 84% | residual activity [25]: 100% | residual activity [26]: 98% | residual activity [27]: 99% | residual activity [28]: 100% | residual activity [29]: 96% | residual activity [30]: 100% | residual activity [31]: 100% | residual activity [32]: 85% | residual activity [33]: 82% | residual activity [34]: 100% | residual activity [35]: 100% | residual activity [36]: 74% | residual activity [37]: 100% | residual activity [38]: 100% | residual activity [39]: 100% | residual activity [40]: 100% | residual activity [41]: 100% | residual activity [42]: 100% | residual activity [43]: 100% | residual activity [44]: 100%

COCCOc1nc(-c2ccc(Cl)nc2)nc2c1CN(C(=O)c1ncn3ccccc13)CC2 [THPP-1]
Ki [1]: > 50 µM (not active) | residual activity [2]: 100% | residual activity [3]: 100% | residual activity [4]: 100% | residual activity [5]: 100% | residual activity [6]: 82% | residual activity [7]: 100% | residual activity [8]: 98% | residual activity [9]: 100% | residual activity [10]: 83% | residual activity [11]: 97% | residual activity [12]: 100% | residual activity [13]: 100% | residual activity [14]: 82% | residual activity [15]: 65% | residual activity [16]: 85% | residual activity [17]: 88% | residual activity [18]: 75% | residual activity [19]: 100% | residual activity [20]: 100% | residual activity [21]: 100% | residual activity [22]: 96% | residual activity [23]: 100% | residual activity [24]: 73% | residual activity [25]: 100% | residual activity [26]: 100% | residual activity [27]: 100% | residual activity [28]: 100% | residual activity [29]: 100% | residual activity [30]: 100% | residual activity [31]: 100% | residual activity [32]: 71% | residual activity [33]: 89% | residual activity [34]: 100% | residual activity [35]: 100% | residual activity [36]: 53% | residual activity [37]: 100% | residual activity [38]: 100% | residual activity [39]: 100% | residual activity [40]: 100% | residual activity [41]: 100% | residual activity [42]: 100% | residual activity [43]: 100% | residual activity [44]: 100%
